Data from US11192967B1, “Thermosetting polyimides derived from resveratrol” (The United States of America, as represented by the …, priority 2017, dated 2021).
Where two headings read alike, the source gives them in different places.

Assays:
Mutagenicity (Ames test) = format: cell-based
Experimental: (§1) Toxicity Testing. In vitro toxicity tests were conducted for compounds 1-3.

LD50 (toxicity testing) = details: listed among in vitro toxicity test results
Aquatic toxicity = details: for Aquatic toxicity (in words): 1 and 2 compared to MDA
Experimental: as §1

In vitro cytotoxicity = format: cell-based; details: concentration at which cytotoxicity was observed; solubility limit 10 μg/mL for 3
Experimental: as §1

**Q.** Which results are given for `Nc1ccc(Oc2ccc(CCc3cc(Oc4ccc(N)cc4)cc(Oc4ccc(N)cc4)c3)cc2)cc1` [compound 3]?
**A.** Mutagenicity (Ames test) (Mutagenicity (Ames test)): Not mutagenic; Mutagenicity (Ames test) (Mutagenicity (Ames test); listed as Compound 3): not mutagenic; LD50 (LD50 (toxicity testing); read-out: LD50): 568 mg/kg; Aquatic Toxicity (Aquatic toxicity): >2000 mg/L; Aquatic toxicity (in words) (Aquatic toxicity): remarkably low aquatic toxicity; Cytotoxicity (In vitro cytotoxicity): None observed

**Q.** What does the source list for `Nc1ccc(Cc2ccc(N)cc2)cc1` [MDA, Methylene dianiline, reference compound]?
**A.** Mutagenicity (Ames test) (Mutagenicity (Ames test)): Mutagenic; LD50 (LD50 (toxicity testing)): 944 mg/kg; Aquatic Toxicity (Aquatic toxicity): 14.30 mg/L

**Q.** With `Nc1ccc(CCc2cc(N)cc(N)c2)cc1` [compound 2] as the molecule, how does the “Mutagenicity (Ames test)” value (Mutagenicity (Ames test)) read?
**A.** Mutagenic

**Q.** And the LD50 (LD50 (toxicity testing); read-out: LD50)?
**A.** 820 mg/kg

**Q.** And the “Aquatic Toxicity” value (Aquatic toxicity)?
**A.** 52.7 mg/L

**Q.** What about the “Aquatic toxicity (in words)” value (Aquatic toxicity) of the same molecule?
**A.** substantially reduced aquatic toxicity compared to MDA

**Q.** And the Cytotoxicity (In vitro cytotoxicity)?
**A.** >/=3.2 μg/mL

**Q.** For `Nc1ccc(/C=C/c2cc(N)cc(N)c2)cc1` [compound 1, (E)-5-(4-aminostyryl)benzene-1,3-diamine], which “Mutagenicity (Ames test)” value (Mutagenicity (Ames test)) is on record?
**A.** Mutagenic

**Q.** And the LD50 (LD50 (toxicity testing); read-out: LD50)?
**A.** 301 mg/kg

**Q.** And the “Aquatic Toxicity” value (Aquatic toxicity)?
**A.** 1153 mg/L

**Q.** What about the “Aquatic toxicity (in words)” value (Aquatic toxicity) of the same molecule?
**A.** substantially reduced aquatic toxicity compared to MDA

**Q.** What about the Cytotoxicity (In vitro cytotoxicity) of the same molecule?
**A.** >/=3.2 μg/mL
